Reference: patent publication US20250257034A1, “INDOLE DERIVATIVES AS SEROTONERGIC AGENTS USEFUL FOR THE TREATMENT OF DISORDERS RELATED THERETO” (priority 2023, published 2025)
pEC50: −log10 of the molar value. Where two headings read alike, the source gives them in different places.

Tests used:
[1] = Rat liver microsomes stability; format: in vitro ADME; conditions: for half-life at 2 μM / CLint scaled at 2 μM / microsomal CLint at 2 μM: male; for half-life at 2 μM / microsomal CLint at 2 μM: 2 μM compound; for CLint scaled at 2 μM: read-out: Scaled-up CLint; for microsomal CLint at 2 μM: rat, read-out: CLint (μL/min/mg protein)
Method: The objective of this study was to estimate in vitro metabolic stability of exemplary compounds of Formula (I) or a pharmaceutically acceptable salt, solvate, and/or prodrug thereof in pooled human, male rat, and male mouse liver microsomes. The concentrations of compounds in reaction systems were evaluated by LC-MS/MS for estimating the stability in pooled human, male rat, and male mouse liver microsomes. The in vitro intrinsic clearances of test compounds were determined as well.
A master solution in the “Incubation Plate” containing phosphate buffer, ultra-pure H2O, MgCl2 solution and liver microsomes was made according to Table 33. The mixture was pre-warmed at 37° C. water bath for 5 minutes.
40 μL of 10 mM nicotinamide adenine dinucleotide phosphate (NADPH) solution was added to each well. The final concentration of NADPH was 1 mM. The negative control samples were prepared by replacing NADPH with 40 μL of ultra-pure H2O. Samples were prepared in duplicate. Negative controls were prepared in singlet.
The reaction was started with the addition of 4 μL of 200 μM exemplary test compounds of the disclosure or control compounds to each master solution to get the final concentration of 2 μM. This study was performed in duplicate.
Aliquots of 50 μL were taken from the reaction solution at 0, 15, 30, 45, and 60 minutes. The reaction solutions were stopped by the addition of 4 volumes of cold methanol with IS (100 nM alprazolam, 200 nM imipramine, 200 nM labet alol and 2 μM ketoprofen). Samples were centrifuged at 3,220 g for 40 minutes. Aliquot of 90 μL of the supernatant was mixed with 90 μL of ultra-pure H2O and then was used for LC-MS/MS analysis.
LC/MS analysis was performed for all samples from this study using a Shimadzu liquid chromatograph separation system equipped with degasser DGU-20A5R; solvent delivery unit LC-30AD; system controller SIL-30AC; column oven CTO-30A; CTC Analytics HTC PAL System. Mass spectrometric analysis was performed using a Triple Quad™ 5500 instrument.
All calculations were carried out using Microsoft Excel. Peak area ratios of test compound to internal standard (listed in the below table) were determined from extracted ion chromatograms.
All calculations were carried out using Microsoft Excel. Peak areas were determined from extracted ion chromatograms. The slope value, k, was determined by linear regression of the natural logarithm of the remaining percentage of the parent drug vs. incubation time curve.
The in vitro half-life (in vitro t1/2) was determined from the slope value:
Conversion of the in vitro t1/2(min) into the in vitro intrinsic clearance (in vitro CLint, in μL/min/mg proteins) was done using the following equation (mean of duplicate determinations): […]
A master solution in the “Incubation Plate” containing phosphate buffer, ultra-pure H2O, MgCl2 solution and liver microsomes was made according to Table 63. The mixture was pre-warmed at 37° C. water bath for 5 minutes.
40 μL of 10 mM NADPH solution was added to each well. The final concentration of NADPH was 1 mM. The negative control samples were prepared by replacing NADPH with 40 μL of ultra-pure H2O. Samples were prepared in duplicate. Negative controls were prepared in singlet.
Conversion of the in vitro t1/2(min) into the in vitro intrinsic clearance (in vitro C Lt, in μL/min/mg proteins) was done using the following equation (mean of duplicate determinations): […]

[2] = molecular target: human 5-HT2A receptor (Homo sapiens, UniProt P28223); assay: h-5HT2A β-arrestin reporter assay in U2OS cells; format: cell-based; design: expressed in transfected cells
Method: (§1) Compound potency (EC50) and efficacy (Max response) against the human 5-HT2A receptor in stably transfected U2OS cells was determined in a G protein-coupled receptors (GPCR) cell based p-arrestin reporter assay. Cells were seeded in a total volume of 20 μL into white walled, 384-well microplates and incubated at 37° C. overnight before analysis. For agonist determination, cells were incubated with sample to induce response. Intermediate dilution of sample stocks was performed to generate 5×sample in assay buffer. 5 μL of 5×sample was added to cells and incubated at 37° C. for 120 minutes. Final assay vehicle concentration was 1%.
as §1, with “5-HT2Areceptor” for “5-HT2A receptor”, “GPCR” for “G protein-coupled receptors (GPCR)”, “P-arrestin” for “p-arrestin”

[3] = molecular target: T1, human 5-HT2C receptor (Homo sapiens, UniProt P28335); assay: cell-based; conditions: FLIPR calcium mobilization, U2OS cells
T1 construct: expressed in transfected cells; host or cells: U2OS, stably transfected
T1 sequence (P28335 33-458): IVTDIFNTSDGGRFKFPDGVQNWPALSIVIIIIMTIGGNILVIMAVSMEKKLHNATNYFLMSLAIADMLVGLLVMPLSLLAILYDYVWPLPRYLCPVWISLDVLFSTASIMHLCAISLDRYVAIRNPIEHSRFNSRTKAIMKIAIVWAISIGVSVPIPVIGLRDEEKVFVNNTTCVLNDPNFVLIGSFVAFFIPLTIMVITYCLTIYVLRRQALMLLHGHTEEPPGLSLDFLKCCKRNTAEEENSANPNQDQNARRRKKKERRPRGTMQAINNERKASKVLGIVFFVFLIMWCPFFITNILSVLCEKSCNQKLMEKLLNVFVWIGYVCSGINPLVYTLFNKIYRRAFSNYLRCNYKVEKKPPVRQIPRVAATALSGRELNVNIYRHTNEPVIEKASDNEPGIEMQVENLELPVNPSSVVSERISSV

[4] = pooled liver microsomes, rat liver microsomes, 0.5 mg/mL
[5] = pooled liver microsomes, rat liver microsomes
[6] = rat liver microsomes, With Cofactors, 0 min
[7] = rat liver microsomes, With Cofactors, 30 min
[8] = rat liver microsomes, With Cofactors, 60 min
[9] = rat liver microsomes, Without Cofactors, 0 min
[10] = rat liver microsomes, Without Cofactors, 30 min
[11] = rat liver microsomes, Without Cofactors, 60 min
[12] = β-arrestin reporter, U2OS cells
[13] = liver microsomes, Rat liver microsomes, 0.5 mg/mL microsomes, 1 mM NADPH
[14] = Rat liver microsomes, 0.5 mg/mL microsomes, 1 mM NADPH, 37° C

human 5-HT2A receptor, sequence (P28223 whole entry): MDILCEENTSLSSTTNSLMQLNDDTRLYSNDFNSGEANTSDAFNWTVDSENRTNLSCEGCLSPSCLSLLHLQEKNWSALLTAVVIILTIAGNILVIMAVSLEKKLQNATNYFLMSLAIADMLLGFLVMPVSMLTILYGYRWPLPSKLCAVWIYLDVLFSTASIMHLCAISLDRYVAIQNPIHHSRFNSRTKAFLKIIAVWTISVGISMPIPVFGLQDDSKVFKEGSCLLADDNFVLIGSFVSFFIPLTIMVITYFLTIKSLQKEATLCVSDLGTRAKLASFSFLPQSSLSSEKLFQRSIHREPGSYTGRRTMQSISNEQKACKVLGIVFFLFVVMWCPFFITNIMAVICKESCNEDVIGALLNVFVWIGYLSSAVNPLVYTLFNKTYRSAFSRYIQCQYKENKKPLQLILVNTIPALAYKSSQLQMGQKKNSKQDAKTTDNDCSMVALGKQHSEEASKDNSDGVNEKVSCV

Row | SMILES | half-life at 2 μM [1, 4] [min] | CLint scaled at 2 μM [1, 5] [mL/min/kg] | microsomal CLint at 2 μM [1, 4] [µL/min/mg] | Predicted hepatic CL ([1]; rat liver microsomes) [mL/min/kg] | Remaining Percentage (%) [1, 6] [%] | Remaining Percentage (%) [1, 7] [%] | Remaining Percentage (%) [1, 8] [%] | Remaining Percentage (%) [1, 9] [%] | Remaining Percentage (%) [1, 10] [%] | Remaining Percentage (%) [1, 11] [%] | Predicted hepatic CL ([1]; Rat liver microsomes) [mL/min/kg] | microsomal CLint at 2 μM [1, 13] [µL/min/mg] | half-life at 2 μM [1, 14] [min] | CLint scaled at 2 μM ([1]; Rat liver microsomes) [mL/min/kg] | other results
1 | COc1ccc2[nH]cc(CCN3CC[C@@H](OC)C3)c2c1 [(R) I-66, (R)-5-methoxy-3-(2-(3-methoxypyrrolidin-1-yl)ethyl)-1H-indole] | 17.8 | 139 | 77.7 | 39.53 | 100.00 | 22.22 | 9.71 | 100.00 | 102.61 | 100.00 |  |  |  |  | 
2 | COc1ccc2[nH]cc(CCN3CC[C@@H](OC(F)F)C3)c2c1 [(R) I-67, (R)-3-(2-(3-(Difluoromethoxy)pyrrolidin-1-yl)ethyl)-5-methoxy-1H-indole] | 10.5 | 236 | 132 | 44.73 | 100.00 | 15.35 | 1.93 | 100.00 | 91.21 | 80.30 |  |  |  |  | 
3 | COc1ccc2[nH]cc(CCN3CC[C@H](OC(F)F)C3)c2c1 [(S) I-67, (S)-3-(2-(3-(Difluoromethoxy)pyrrolidin-1-yl)ethyl)-5-methoxy-1H-indole] | < 4.51 | > 550 | > 307 | >50.17 | 100.00 | 0.00 | 0.00 | 100.00 | 99.06 | 96.86 |  |  |  |  | pEC50 [2]: 5.68; Emax (% of serotonin) [2, 12]: 38.02 % of serotonin; pEC50 [3]: 5.57; Emax (% of serotonin) [3]: 75.3 % of serotonin
4 | CCN(CC)CCc1c[nH]c2ccc(SC)cc12 [Compound I-12, N,N-Diethyl-2-(5-(methylthio)-1H-indol-3-yl)ethan-1-amine] |  |  |  |  |  |  |  |  |  |  | 30.14 | 37 | 37.4 | 66.4 | 
5 | CSc1ccc2[nH]cc(CCN(C(C)C)C(C)C)c2c1 [Compound I-17, N-Isopropyl-N-(2-(5-(methylthio)-1H-indol-3-yl)ethyl)propan-2-amine] |  |  |  |  |  |  |  |  |  |  | 30.01 | 36.7 | 37.8 | 65.8 | 
6 | CSc1ccc2[nH]cc(CCN(C)C(C)C)c2c1 [Compound I-19, N-Methyl-N-(2-(5-(methylthio)-1H-indol-3-yl)ethyl)propan-2-amine] |  |  |  |  |  |  |  |  |  |  | 16.73 | 13.4 | 103 | 24 | 
7 | COc1ccc2[nH]cc(CCN(C)CCOC(F)F)c2c1 [Compound I-71, 2-(Difluoromethoxy)-N-(2-(5-methoxy-1H-indol-3-yl)ethyl)-N-methylethan-1-amine] | 9.7 | 256 | 143 | 45.41 | 100.00 | 10.63 | 1.37 | 100.00 | 96.79 | 100.64 |  |  |  |  | 
8 | CN(C)CCc1c[nH]c2ccc(OCCOC(F)F)cc12 [Compound I-128, 2-(5-(2-(Difluoromethoxy)ethoxy)-1H-indol-3-yl)-N,N-dimethylethan-1-amine] | 7.43 | 334 | 187 | 47.38 | 100.00 | 6.09 | 0.56 | 100.00 | 70.92 | 52.18 |  |  |  |  | 
9 | CN(CCOC(F)F)CCc1c[nH]c2ccccc12 [Compound I-130, N-(2-(1H-Indol-3-yl)ethyl)-2-(difluoromethoxy)-N-methylethan-1-amine] | < 4.51 | > 550 | > 307 | >50.17 | 100.00 | 0.00 | 0.00 | 100.00 | 105.21 | 103.65 |  |  |  |  | 
10 | CN(C)CCc1c[nH]c2ccccc12 [DMT] |  |  |  |  |  |  |  |  |  |  |  |  |  |  | Emax (% of serotonin) ([2]; relative to maximum response of control ligand serotonin): 38.86 % of serotonin; Emax (% of serotonin) [2, 12]: 38.86 % of serotonin; pEC50 ([2]; β-arrestin reporter, U2OS cells, 120 min, read-out: EC50): 6.94; pEC50 ([2]; β-arrestin reporter, U2OS cells, read-out: EC50): 6.94
